{
  "source": "paper PMC12752606",
  "about": "“METTL10‐Mediated PIAS3 Methylation Links Purine Metabolism to Gastric Cancer Progression” (Advanced Science, 2025)",
  "key": {"EZH2 [Y641H]": {"biological_target": "EZH2 [Y641H] (Homo sapiens, UniProt Q15910, Y641H)", "assay": "Off-target methyltransferase profiling (MTase-Glo)", "format": "biochemical", "experimental": "(§1) To evaluate the off‐target effects of LZQ‐02‐023‐01 on methyltransferase activity, a panel of enzymes was assessed using the MTase‐Glo Methyltransferase Assay (Promega), following the manufacturer's instructions. The assay was performed by ICE Bioscience Inc. Briefly, LZQ‐02‐023‐01 was serially diluted 4‐fold in DMSO to generate a 10‐point concentration gradient, and the resulting solutions were dispensed into 384‐well white assay plates using an Echo acoustic liquid handler (Labcyte). Plates were centrifuged at 1000 rpm for 1 min to ensure even compound distribution. Following a 10‐min preincubation at 25 °C, 2 µL of a substrate solution containing S‐adenosylmethionine (SAM) and the specific methyltransferase substrate (Table S7, Supporting Information) was added to each well. After a brief centrifugation, plates were incubated at 25 °C for 180 min to allow the enzymatic methylation reaction to proceed. Subsequently, 1 µL of MTase‐Glo reagent was added, followed by centrifugation and incubation at 25 °C for 45 min. Then, 5 µL of MTase‐Glo detection solution was introduced into each well, and the plates were incubated for an additional 45 min at 25 °C after centrifugation.\n(§2) Luminescence signals were directly proportional to methyltransferase activity, were recorded using a microplate reader (BMG LABTECH). Percent inhibition was calculated by normalizing luminescence intensities of compound‐treated wells to DMSO‐treated controls, and IC50 values were calculated using GraphPad Prism 8 software."}, "SUV420H1": {"biological_target": "SUV420H1 (Homo sapiens, UniProt Q4FZB7)", "sequence (Q4FZB7 whole entry, species assumed)": "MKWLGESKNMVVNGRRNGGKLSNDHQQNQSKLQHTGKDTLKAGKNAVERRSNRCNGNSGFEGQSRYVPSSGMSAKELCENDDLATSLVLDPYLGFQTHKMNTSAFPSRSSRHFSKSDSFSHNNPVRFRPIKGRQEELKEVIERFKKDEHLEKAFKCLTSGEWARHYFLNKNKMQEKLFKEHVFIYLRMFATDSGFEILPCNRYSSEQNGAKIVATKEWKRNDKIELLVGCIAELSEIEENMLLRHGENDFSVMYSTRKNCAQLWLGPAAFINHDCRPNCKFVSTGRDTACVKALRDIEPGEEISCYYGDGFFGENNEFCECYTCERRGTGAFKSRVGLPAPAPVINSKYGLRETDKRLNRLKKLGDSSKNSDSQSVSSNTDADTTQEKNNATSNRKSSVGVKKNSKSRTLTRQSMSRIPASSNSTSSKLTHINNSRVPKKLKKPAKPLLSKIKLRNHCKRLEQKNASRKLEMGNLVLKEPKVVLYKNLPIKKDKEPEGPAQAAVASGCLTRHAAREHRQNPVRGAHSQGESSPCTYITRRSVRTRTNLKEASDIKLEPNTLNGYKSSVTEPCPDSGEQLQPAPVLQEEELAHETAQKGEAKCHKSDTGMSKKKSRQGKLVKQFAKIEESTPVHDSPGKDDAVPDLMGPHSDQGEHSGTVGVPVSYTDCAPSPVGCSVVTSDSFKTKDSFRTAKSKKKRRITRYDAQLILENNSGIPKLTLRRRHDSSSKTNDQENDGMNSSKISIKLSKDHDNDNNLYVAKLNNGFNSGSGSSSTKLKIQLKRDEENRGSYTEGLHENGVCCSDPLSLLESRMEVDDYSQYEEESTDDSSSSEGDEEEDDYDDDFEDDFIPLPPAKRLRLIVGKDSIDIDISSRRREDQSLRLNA", "assay": "Off-target methyltransferase profiling (MTase-Glo)", "format": "biochemical", "experimental": "as §1, §2"}, "SUV39H2": {"biological_target": "SUV39H2 (Homo sapiens, UniProt Q9H5I1)", "sequence (Q9H5I1 whole entry, species assumed)": "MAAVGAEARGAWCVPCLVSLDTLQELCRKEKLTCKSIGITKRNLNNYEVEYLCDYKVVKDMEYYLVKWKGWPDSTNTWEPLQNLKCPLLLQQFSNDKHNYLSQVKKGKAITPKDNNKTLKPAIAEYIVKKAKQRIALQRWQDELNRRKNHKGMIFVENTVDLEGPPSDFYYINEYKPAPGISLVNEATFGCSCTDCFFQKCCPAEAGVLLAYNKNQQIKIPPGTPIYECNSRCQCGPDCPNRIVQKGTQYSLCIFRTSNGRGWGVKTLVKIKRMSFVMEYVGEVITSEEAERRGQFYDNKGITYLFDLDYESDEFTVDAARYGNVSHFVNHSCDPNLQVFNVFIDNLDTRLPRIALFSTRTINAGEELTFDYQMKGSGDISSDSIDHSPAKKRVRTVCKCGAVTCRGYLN", "assay": "Off-target methyltransferase profiling (MTase-Glo)", "format": "biochemical", "experimental": "as §1, §2"}, "SUV39H1": {"biological_target": "SUV39H1 (Homo sapiens, UniProt O43463)", "sequence (O43463 whole entry, species assumed)": "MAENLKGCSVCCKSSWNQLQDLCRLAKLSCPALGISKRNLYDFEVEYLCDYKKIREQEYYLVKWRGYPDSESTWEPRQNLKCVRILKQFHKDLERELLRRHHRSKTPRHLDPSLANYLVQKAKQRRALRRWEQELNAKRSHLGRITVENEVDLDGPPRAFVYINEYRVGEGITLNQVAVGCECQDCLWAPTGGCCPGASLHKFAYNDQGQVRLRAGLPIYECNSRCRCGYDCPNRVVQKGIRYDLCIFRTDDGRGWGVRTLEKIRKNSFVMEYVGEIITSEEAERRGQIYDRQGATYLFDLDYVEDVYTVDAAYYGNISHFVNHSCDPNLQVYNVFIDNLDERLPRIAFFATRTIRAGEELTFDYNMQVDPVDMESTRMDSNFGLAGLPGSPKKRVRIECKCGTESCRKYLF", "assay": "Off-target methyltransferase profiling (MTase-Glo)", "format": "biochemical", "experimental": "as §1, §2"}, "METTL3/14": {"biological_target": "METTL3/14 (Homo sapiens, UniProt Q86U44)", "assay": "Off-target methyltransferase profiling (MTase-Glo)", "format": "biochemical", "experimental": "as §1, §2"}, "EZH2 [A677G]": {"biological_target": "EZH2 [A677G] (Homo sapiens, UniProt Q15910, A677G)", "assay": "Off-target methyltransferase profiling (MTase-Glo)", "format": "biochemical", "experimental": "as §1, §2"}, "PRMT5": {"biological_target": "PRMT5 (Homo sapiens, UniProt O14744)", "sequence (O14744 whole entry, species assumed)": "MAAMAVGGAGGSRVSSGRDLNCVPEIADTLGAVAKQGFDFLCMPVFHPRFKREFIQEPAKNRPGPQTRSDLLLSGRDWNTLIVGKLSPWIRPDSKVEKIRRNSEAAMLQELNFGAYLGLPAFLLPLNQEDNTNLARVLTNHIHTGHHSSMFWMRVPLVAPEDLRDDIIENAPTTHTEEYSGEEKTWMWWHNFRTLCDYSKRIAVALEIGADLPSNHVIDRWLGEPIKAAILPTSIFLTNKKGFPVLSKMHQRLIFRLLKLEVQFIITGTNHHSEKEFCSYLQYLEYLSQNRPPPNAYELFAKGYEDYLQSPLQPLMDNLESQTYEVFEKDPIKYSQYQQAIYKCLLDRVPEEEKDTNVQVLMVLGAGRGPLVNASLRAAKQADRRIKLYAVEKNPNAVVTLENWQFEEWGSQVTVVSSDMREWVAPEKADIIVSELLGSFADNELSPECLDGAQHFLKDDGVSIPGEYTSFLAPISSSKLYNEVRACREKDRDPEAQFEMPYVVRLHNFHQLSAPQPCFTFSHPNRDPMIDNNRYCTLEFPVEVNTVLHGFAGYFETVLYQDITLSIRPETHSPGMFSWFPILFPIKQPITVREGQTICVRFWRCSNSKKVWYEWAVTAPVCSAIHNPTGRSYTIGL", "sequence (Q9BQA1 whole entry partner, species assumed)": "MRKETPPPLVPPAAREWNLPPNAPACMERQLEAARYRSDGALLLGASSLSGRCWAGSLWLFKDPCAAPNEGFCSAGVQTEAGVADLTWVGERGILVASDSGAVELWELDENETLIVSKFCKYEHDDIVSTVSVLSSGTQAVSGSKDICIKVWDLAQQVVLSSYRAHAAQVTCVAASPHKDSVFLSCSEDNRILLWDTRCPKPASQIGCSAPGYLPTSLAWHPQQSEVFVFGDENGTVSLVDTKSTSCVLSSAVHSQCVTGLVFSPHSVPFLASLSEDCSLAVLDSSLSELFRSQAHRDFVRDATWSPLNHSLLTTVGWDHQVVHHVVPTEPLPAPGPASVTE", "assay": "Off-target methyltransferase profiling (MTase-Glo)", "format": "biochemical", "experimental": "as §1, §2"}, "EZH2 [Y641F]": {"biological_target": "EZH2 [Y641F] (Homo sapiens, UniProt Q15910, Y641F)", "assay": "Off-target methyltransferase profiling (MTase-Glo)", "format": "biochemical", "experimental": "as §1, §2"}, "EZH2 [Y641N]": {"biological_target": "EZH2 [Y641N] (Homo sapiens, UniProt Q15910, Y641N)", "assay": "Off-target methyltransferase profiling (MTase-Glo)", "format": "biochemical", "experimental": "as §1, §2"}, "SETD1A": {"biological_target": "SETD1A (Homo sapiens, UniProt O15047)", "assay": "Off-target methyltransferase profiling (MTase-Glo)", "format": "biochemical", "experimental": "as §1, §2"}, "GLP": {"biological_target": "GLP (Homo sapiens, UniProt Q9H9B1)", "assay": "Off-target methyltransferase profiling (MTase-Glo)", "format": "biochemical", "experimental": "as §1, §2"}, "PRMT8": {"biological_target": "PRMT8 (Homo sapiens, UniProt Q9NR22)", "sequence (Q9NR22 whole entry, species assumed)": "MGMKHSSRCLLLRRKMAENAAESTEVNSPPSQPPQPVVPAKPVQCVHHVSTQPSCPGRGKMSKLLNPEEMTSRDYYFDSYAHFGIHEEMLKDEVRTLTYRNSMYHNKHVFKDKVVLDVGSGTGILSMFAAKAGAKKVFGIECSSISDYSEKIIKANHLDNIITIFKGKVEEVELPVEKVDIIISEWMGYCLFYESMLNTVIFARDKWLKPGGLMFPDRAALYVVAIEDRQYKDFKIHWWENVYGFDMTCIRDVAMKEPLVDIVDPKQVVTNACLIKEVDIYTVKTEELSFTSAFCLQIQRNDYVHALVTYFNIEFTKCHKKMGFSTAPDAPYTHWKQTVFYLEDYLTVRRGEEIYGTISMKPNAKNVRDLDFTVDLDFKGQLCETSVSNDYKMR", "assay": "Off-target methyltransferase profiling (MTase-Glo)", "format": "biochemical", "experimental": "as §1, §2"}, "EZH2": {"biological_target": "EZH2 (Homo sapiens, UniProt Q15910)", "assay": "Off-target methyltransferase profiling (MTase-Glo)", "format": "biochemical", "experimental": "as §1, §2"}, "PRMT1": {"biological_target": "PRMT1 (Homo sapiens, UniProt Q99873)", "sequence (Q99873 whole entry, species assumed)": "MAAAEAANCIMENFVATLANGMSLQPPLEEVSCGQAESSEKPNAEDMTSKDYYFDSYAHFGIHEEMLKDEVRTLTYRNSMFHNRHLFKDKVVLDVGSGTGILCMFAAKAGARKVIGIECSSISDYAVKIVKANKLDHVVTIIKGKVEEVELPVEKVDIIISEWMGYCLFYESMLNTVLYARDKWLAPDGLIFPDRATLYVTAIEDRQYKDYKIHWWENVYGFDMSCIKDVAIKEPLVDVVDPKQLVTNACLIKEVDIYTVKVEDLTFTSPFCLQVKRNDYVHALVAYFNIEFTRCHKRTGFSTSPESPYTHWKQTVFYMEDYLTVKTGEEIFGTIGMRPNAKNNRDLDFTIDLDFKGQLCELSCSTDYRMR", "assay": "Off-target methyltransferase profiling (MTase-Glo)", "format": "biochemical", "experimental": "as §1, §2"}, "EZH1": {"biological_target": "EZH1 (Homo sapiens, UniProt Q92800)", "assay": "Off-target methyltransferase profiling (MTase-Glo)", "format": "biochemical", "experimental": "as §1, §2"}, "PRMT4": {"biological_target": "PRMT4 (Homo sapiens, UniProt Q86X55)", "sequence (Q86X55 whole entry, species assumed)": "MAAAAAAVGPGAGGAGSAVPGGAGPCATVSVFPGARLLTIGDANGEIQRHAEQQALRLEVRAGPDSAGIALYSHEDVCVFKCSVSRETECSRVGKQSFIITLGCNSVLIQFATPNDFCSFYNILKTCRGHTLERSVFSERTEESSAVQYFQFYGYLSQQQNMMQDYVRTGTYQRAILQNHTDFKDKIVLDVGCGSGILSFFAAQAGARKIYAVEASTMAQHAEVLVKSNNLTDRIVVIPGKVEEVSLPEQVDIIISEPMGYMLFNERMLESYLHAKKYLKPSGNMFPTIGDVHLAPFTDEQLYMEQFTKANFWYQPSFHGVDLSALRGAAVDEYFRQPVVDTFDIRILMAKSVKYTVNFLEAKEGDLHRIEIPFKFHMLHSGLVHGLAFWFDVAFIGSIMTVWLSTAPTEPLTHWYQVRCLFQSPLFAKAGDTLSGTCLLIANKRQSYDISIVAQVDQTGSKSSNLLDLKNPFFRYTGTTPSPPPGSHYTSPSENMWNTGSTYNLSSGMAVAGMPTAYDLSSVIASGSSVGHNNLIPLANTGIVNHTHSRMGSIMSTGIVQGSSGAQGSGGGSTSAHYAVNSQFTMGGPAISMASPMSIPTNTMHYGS", "assay": "Off-target methyltransferase profiling (MTase-Glo)", "format": "biochemical", "experimental": "as §1, §2"}, "G9A": {"biological_target": "G9A (Homo sapiens, UniProt Q96KQ7)", "assay": "Off-target methyltransferase profiling (MTase-Glo)", "format": "biochemical", "experimental": "as §1, §2"}, "DNMT1": {"biological_target": "DNMT1 (Homo sapiens, UniProt P26358)", "assay": "Off-target methyltransferase profiling (MTase-Glo)", "format": "biochemical", "experimental": "as §1, §2"}, "PRMT5+MTA": {"biological_target": "PRMT5+MTA (Homo sapiens, UniProt O14744)", "sequence (O14744 whole entry, species assumed)": "as the sequence (O14744 whole entry, species assumed) above", "sequence (Q9BQA1 whole entry partner, species assumed)": "as the sequence (Q9BQA1 whole entry partner, species assumed) above", "assay": "Off-target methyltransferase profiling (MTase-Glo)", "format": "biochemical", "experimental": "as §1, §2"}, "MLL3": {"biological_target": "MLL3 (Homo sapiens, UniProt Q8NEZ4)", "assay": "Off-target methyltransferase profiling (MTase-Glo)", "format": "biochemical", "experimental": "as §1, §2"}, "SMYD2": {"biological_target": "SMYD2 (Homo sapiens, UniProt Q9NRG4)", "sequence (Q9NRG4 whole entry, species assumed)": "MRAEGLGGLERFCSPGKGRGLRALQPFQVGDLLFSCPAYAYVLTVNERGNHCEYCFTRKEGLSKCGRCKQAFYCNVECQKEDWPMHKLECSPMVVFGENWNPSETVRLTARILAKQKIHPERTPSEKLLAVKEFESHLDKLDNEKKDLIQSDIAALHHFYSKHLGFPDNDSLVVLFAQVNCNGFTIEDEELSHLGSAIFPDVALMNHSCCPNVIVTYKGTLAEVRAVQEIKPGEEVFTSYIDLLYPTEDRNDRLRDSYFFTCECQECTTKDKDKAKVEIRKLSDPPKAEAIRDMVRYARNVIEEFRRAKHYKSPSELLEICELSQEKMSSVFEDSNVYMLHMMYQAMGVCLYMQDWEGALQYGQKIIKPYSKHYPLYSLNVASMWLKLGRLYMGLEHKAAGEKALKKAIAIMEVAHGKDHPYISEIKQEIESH", "assay": "Off-target methyltransferase profiling (MTase-Glo)", "format": "biochemical", "experimental": "as §1, §2"}, "NSD2": {"biological_target": "NSD2 (Homo sapiens, UniProt O96028)", "assay": "Off-target methyltransferase profiling (MTase-Glo)", "format": "biochemical", "experimental": "as §1, §2"}, "DOT1L": {"biological_target": "DOT1L (Homo sapiens, UniProt Q8TEK3)", "assay": "Off-target methyltransferase profiling (MTase-Glo)", "format": "biochemical", "experimental": "as §1, §2"}, "SETD1B": {"biological_target": "SETD1B (Homo sapiens, UniProt Q9UPS6)", "assay": "Off-target methyltransferase profiling (MTase-Glo)", "format": "biochemical", "experimental": "as §1, §2"}, "PRMT6": {"biological_target": "PRMT6 (Homo sapiens, UniProt Q96LA8)", "sequence (Q96LA8 whole entry, species assumed)": "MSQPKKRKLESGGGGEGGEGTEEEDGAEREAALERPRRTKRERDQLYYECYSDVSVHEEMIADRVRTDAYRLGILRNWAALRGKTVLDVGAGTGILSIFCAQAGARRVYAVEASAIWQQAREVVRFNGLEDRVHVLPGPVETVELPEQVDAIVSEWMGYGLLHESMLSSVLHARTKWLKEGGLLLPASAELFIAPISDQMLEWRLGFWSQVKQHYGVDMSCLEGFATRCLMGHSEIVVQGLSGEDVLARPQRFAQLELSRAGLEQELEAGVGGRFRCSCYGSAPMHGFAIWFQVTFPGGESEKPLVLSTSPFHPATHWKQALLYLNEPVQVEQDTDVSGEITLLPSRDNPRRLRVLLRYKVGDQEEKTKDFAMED", "assay": "Off-target methyltransferase profiling (MTase-Glo)", "format": "biochemical", "experimental": "as §1, §2"}, "EZH2 [A738T]": {"biological_target": "EZH2 [A738T] (Homo sapiens, UniProt Q15910, A733T)", "assay": "Off-target methyltransferase profiling (MTase-Glo)", "format": "biochemical", "experimental": "as §1, §2"}, "NSD3": {"biological_target": "NSD3 (Homo sapiens, UniProt Q9BZ95)", "assay": "Off-target methyltransferase profiling (MTase-Glo)", "format": "biochemical", "experimental": "as §1, §2"}, "[1]": {"assay": "Body weight and organ toxicity in treated tumor-bearing mice", "format": "in vivo", "conditions": "K19-C2mE and Cldn18-AT mice", "experimental": "For the subcutaneous tumor model, 5 × 10⁶ MKN45 cells suspended in 100 µL of sterile PBS were injected subcutaneously into the flanks of BALB/c nude mice. When tumor volumes reached approximately 50 mm^3, mice were randomized into three groups (Vehicle control, LZQ‐02‐023‐01 at 20 mg/kg or 40 mg/kg, n = 10 per group). All treatments were administered via intraperitoneal injection once daily for 14 consecutive days. Tumor volumes were measured every 2 days using calipers and calculated using the formula: volume = [length × (width[2])]/2. Mice were sacrificed on day 24 for endpoint analyses. For genetically engineered mouse models (GEMMs), 25‐week‐old K19‐C2mE mice were randomized into Vehicle control (n = 8) and LZQ‐02‐023‐01 treatment (40 mg/kg, n = 8) groups. Both groups received daily intraperitoneal injections for 28 consecutive days. Similarly, 8‐week‐old Cldn18‐AT mice were induced with tamoxifen (100 mg/kg, T5648, Sigma) and, 2 weeks post‐induction, randomized into Vehicle (n = 6) and LZQ‐02‐023‐01 (40 mg/kg, n = 6) treatment groups. Treatments were administered daily via intraperitoneal injection for 28 days."}, "[2]": {"conditions": "MKN45 xenograft, 20 or 40 mg/kg/day"}},
  "data": [
    {"smiles": "Cc1ccc(Nc2ncc3c(n2)N(C)C(=O)N(c2cccc(N)c2)C3)cn1", "note": "[LZQ-02-023-01, Three‐(3‐aminophenyl)‐1‐methyl‐7‐((6‐methylpyridin‐3‐yl)amino)‐3,4‐dihydropyrimido [4,5‐d] pyrimidin‐2 (1H)‐one]", "values": [
      {"measurement": "IC50", "setting": "EZH2 [Y641H]", "result": 3.46, "unit": "µM"},
      {"measurement": "IC50", "setting": "SUV420H1", "result": 13.3, "unit": "µM"},
      {"measurement": "IC50", "setting": "SUV39H2", "result": 11, "unit": "µM"},
      {"measurement": "IC50", "setting": "SUV39H1", "result": 18.6, "unit": "µM"},
      {"measurement": "IC50", "setting": "METTL3/14", "result": 16.8, "unit": "µM"},
      {"measurement": "IC50", "setting": "EZH2 [A677G]", "result": 13.7, "unit": "µM"},
      {"measurement": "IC50", "setting": "PRMT5", "result": 13, "unit": "µM"},
      {"measurement": "IC50", "setting": "EZH2 [Y641F]", "result": 2.94, "unit": "µM"},
      {"measurement": "IC50", "setting": "EZH2 [Y641N]", "result": 12.4, "unit": "µM"},
      {"measurement": "IC50", "setting": "SETD1A", "result": 18.8, "unit": "µM"},
      {"measurement": "IC50", "setting": "GLP", "result": 23.9, "unit": "µM"},
      {"measurement": "IC50", "setting": "PRMT8", "result": 26.9, "unit": "µM"},
      {"measurement": "IC50", "setting": "EZH2", "result": 14.7, "unit": "µM"},
      {"measurement": "IC50", "setting": "PRMT1", "result": 19.7, "unit": "µM"},
      {"measurement": "IC50", "setting": "EZH1", "result": 28.9, "unit": "µM"},
      {"measurement": "IC50", "setting": "PRMT4", "result": 19.2, "unit": "µM"},
      {"measurement": "IC50", "setting": "G9A", "result": 39.1, "unit": "µM"},
      {"measurement": "IC50", "setting": "DNMT1", "result": 23.8, "unit": "µM"},
      {"measurement": "IC50", "setting": "PRMT5+MTA", "result": 13.9, "unit": "µM"},
      {"measurement": "IC50", "setting": "MLL3", "result": 9.47, "unit": "µM"},
      {"measurement": "IC50", "setting": "SMYD2", "result": 9.07, "unit": "µM"},
      {"measurement": "IC50", "setting": "NSD2", "result": 9.53, "unit": "µM"},
      {"measurement": "IC50", "setting": "DOT1L", "result": 13.1, "unit": "µM"},
      {"measurement": "IC50", "setting": "SETD1B", "result": 8.97, "unit": "µM"},
      {"measurement": "IC50", "setting": "PRMT6", "result": 11, "unit": "µM"},
      {"measurement": "IC50", "setting": "EZH2 [A738T]", "result": 7.47, "unit": "µM"},
      {"measurement": "IC50", "setting": "NSD3", "result": 7.36, "unit": "µM"},
      {"measurement": "Spleen weight", "setting": "[1]; 40 mg/kg/day", "result": "reduction"},
      {"measurement": "Body weight loss", "setting": "[1]; [2]", "result": "did not cause substantial weight loss"},
      {"measurement": "Discernible toxic effects on other organs", "setting": "[1]; [2]", "result": "did not cause"}
    ]}
  ]
}
